Columns and labels:
[1] = General activities and side effects stated in the description; details: concluding statement
[2] = system: platelets; assay: Antithrombotic activity (thrombin-induced platelet aggregation); assay type: cell-based, rat (male Sprague Dawley); details: 1×10^-3 M
Description: Animal: Male Sprague Dawley rate weighing 180-250 g.
Sample: Compound A (1×10^-3 M) in 5% DMF solution.
Rats were anaesthetized with ether and 9 volumes of blood were collected by heart puncture with 1 volume of 3.12% sodium citrate. Combined blood samples were centrifuged at 1,200 rpm for 20 min at 4° C. to obtain platelet-rich plasma. Following centrifugation at 3,000 rpm for 10 min at 4° C., the resulting precipitates (platelets) were resuspended in 0.01M phosphate-buffered saline (pH 7.4). To 1 ml of this solution was added 0.1 ml of the sample solution. After 30 min incubation at 37° C., 10 units of thrombin was added and the reaction mixture was incubated for 1 hr.

[3] = Gastric ulceration experiment; assay type: in vivo, rat (male Sprague Dawley); details: for Ulcer Index: mean ± S.E.; for gastric ulceration: compound A versus aspirin at four times lower dose
Description: Animal: Male Sprague Dawley rats weighing 160-210 g (6 rats as a group).
Reference: Aspirin (200 mg/kg in 1% CMC).
(§1) Medication: Oral administration.
Rats were deprived of food but allowed free access to water for 24 hrs (water was removed 2 hrs before experiments). Samples suspended in 1% CMC solution […]. The stomachs were then inflated by injecting 10 ml of 2% formalin through the esophageal orifice and immersed in 2% formalin for 10 min. Subsequently, the stomachs were incised along the greater curvature and the length of each leison in the glandular portion was measured. The sum of the lengths (mm) of all lesions for each rat was used as the ulcer index.

[4] = system: Carrageenin-induced edema; assay: Antiinflammatory activity by Carrageenin-induced edema test; assay type: in vivo, rat (male Sprague Dawley); details: for % Increment of Edema: mean ± S.E.
Description: Animal: Male Sprague Dawley rats weighing approx. 170 g (5 rats as a group). […]
as §1
The inhibitions of Carrageenin-induced edema by compound A and aspirin was measured according to Winster et al. (Winter, C. A., Risley, E. A. and Nuss, G. W. (1963), J: Pharmaco. Exptl. Therap., 141, 369). Samples were administered orally at 6 hrs and 30 min before Carrageenin injection. Edema was induced with subcutaneous injection of 0.05 ml of 1% Carrageenin in saline solution in a hind paw of rat. Then, the volume of edema was measured at time intervals.

[5] = system: Typhoid vaccine pyrogen; assay: Antipyretic activity (typhoid vaccine pyrogen, rectal temperature); assay type: in vivo, mouse (male ICR); details: oral, mouse, FIG. 3; compound A 160, 500 mg/kg, aspirin 100 mg/kg
Description: Animal: Male ICR mouse weighing 17-21 g (5 mice as a group).
Sample: Compound A (160 mg/kg, 500 mg/kg in 1% CMC).
Reference: Aspirin (100 mg/kg in 1% CMC).
Pyrogen: Typhoid vaccine (0.1 ml/mouse, i.p.).
Antipyretic activities were measured according to Winter et al. with some modifications (Winter, C. A. et al. (1963), J. Pharmacol Exptl. Therap., 141, […]). Rectal temperature was measured using digitalized thermometer inserted 3 cm deep at one hr intervals. Typhoid vaccine was injected to mouse i.p. at zero time. After 2 hrs, aspirin and sample (compound in Example 1) were orally given to mouse.

[6] = Acute toxicity test; assay type: in vivo; details: oral, mouse
[7] = Bleeding time; assay type: in vivo; details: for Bleeding Time: in s (unit assumed); for percent increment of bleeding time: P < 0.05
Description: To the experimental groups, equivalent doses of compound A and aspirin were administered separately for 10 days.

[8] = system: BSA; assay: Protein stabilizing activity (heat denaturation of BSA); assay type: biochemical; details: 1×10^-3 M in 5% DMF; data not shown
Description: Sample: Compound A (1×10^-3 M in 5% DMF solution
The protein stabilizng activity of the sample was analyzed as described by Mizushima (Mizushima, Y. (1965), Lancet, 1, 169). Briefly, 2 ml of 0.75% BSA in 0.1M phosphate-buffered saline (pH 5.3) was mixed with 1 ml of appropriately diluted test sample solution. After standing at room temperature for 15 min, the reaction mixture was incubated at 66.5°C. and 0° C. for 3 min and 15 min, respectively. The degree of heat denaturation of BSA was estimated by the turbidity of colloidal precipitate, whose absorbance at 570 nm was measured.

[9] = system: Malondialdehyde (MDA) Generation in Mouse Liver Homogenate; assay: Inhibition of malondialdehyde (MDA) generation (antioxidant activity), in vitro; assay type: biochemical, mouse (male ICR)
Description: Animal: male ICR mouse weighing 20-25 g
1. Maltol (10% DMF saline)
2. Aspirin (10% DMF saline).
TBA reagents: Thiobarbituric acid (0.3%) and SDS (0.4%) were dissolved in 7.5% acetate buffer (pH 4.0)
Antioxidant activities were determined following the method of Okawa et al. (Biochemistry (Japan) 1977), 49(8), 829). Mouse livers were homogenized with ten volumes of saline. To 10 ml of homogenate was added 10 ml of the sample solution, and the mixture was incubated at 37° C. for 3 hrs. Then 3.6 ml of TBA reagents were added to the mixture and the resulting mixture was heated at 98° C. for 1 hr. After the temperature was reduced to 24° C., the reaction mixture was extracted with 2 ml of butanol and the butanol phase was separated by centrifugation. The absorbance at 532 nm of the butanol phase was measured.

[10] = background statement; cited from earlier work
[11] = final concentration 1.3 × 10^-5 M
[12] = final concentration 2.5 × 10^-3 M
[13] = final concentration 2.5 × 10^-4 M
[14] = final concentration 6.3 × 10^-5 M

In the case of `CC(=O)Oc1ccccc1C(=O)Oc1c(C)occc1=O` [Compound A, maltol-acetylsalicylate ester], the side effects [1] is reported as “little side effects”, the antithrombotic activity [2] is reported as “showed antithrombotic activity” and the platelet aggregation ([2]; 10 units thrombin, naked eye, 1 hr) is reported as “platelet aggregation was not observed”. For the same compound, the “Ulcer Index” value ([3]; 100 mg/kg P.O.) was 0 mm, the “Ulcer Index” value ([3]; 200 mg/kg P.O.) was 0 mm and the “number of rats that exhibited gastric ulcer” value ([3]; 800 mg/kg P.O.) was 1/6. The “Ulcer Index” value ([3]; 800 mg/kg P.O.) was 0.7 ± 0.61 mm, the gastric ulcer ([3]; at 5 times higher dose than aspirin) was “did not cause gastric ulcer” and the gastric ulceration [3] was “did not cause gastric ulceration”. The “% Increment of Edema” value ([4]; 300 mg/kg P.O., 0.5 hr) was 46.5 ± 13.98%, the “% Increment of Edema” value ([4]; 300 mg/kg P.O., 1.5 hr) was 51.2 ± 9.47% and the “% Increment of Edema” value ([4]; 300 mg/kg P.O., 2.5 hr) was 56.1 ± 11.50%. For the same compound, the “% Increment of Edema” value ([4]; 300 mg/kg P.O., 3.5 hr) was 69.4 ± 13.89%, the “% Increment of Edema” value ([4]; 300 mg/kg P.O., 4.5 hr) was 81.9 ± 9.96% and the “% Increment of Edema” value ([4]; 400 mg/kg P.O., 0.5 hr) was 20.3 ± 6.85%. The “% Increment of Edema” value ([4]; 400 mg/kg P.O., 1.5 hr) was 33.8 ± 3.19%, the “% Increment of Edema” value ([4]; 400 mg/kg P.O., 2.5 hr) was 50.2 ± 6.43% and the “% Increment of Edema” value ([4]; 400 mg/kg P.O., 3.5 hr) was 58.4 ± 6.09%. For the same compound, the “% Increment of Edema” value ([4]; 400 mg/kg P.O., 4.5 hr) was 66.2 ± 8.52%, the anti-inflammatory effect ([4]; doses of 300 and 450 mg/kg, oral) was “no anti-inflammatory effect” and the “antipyretic potency compared to aspirin” value [5] was “five times lower than that of aspirin”. For the same compound, the LD50 ([6]; in vivo) was 2140 mg/kg, the toxicity [6] was “little toxicity” and the “Bleeding Time” value ([7]; 15 mg/kg P.O., day 2) was 339.6 ± 53.9. For the same compound, the “Bleeding Time” value ([7]; 15 mg/kg P.O., day 4) was 396.9 ± 56.0, the “Bleeding Time” value ([7]; 15 mg/kg P.O., day 6) was 429.4 ± 50.6 and the “Bleeding Time” value ([7]; 15 mg/kg P.O., day 8) was 518.3 ± 102.8. The “percent increment of bleeding time” value ([7]; 15 mg/kg P.O., day 10) was 50%, the “Bleeding Time” value ([7]; 15 mg/kg P.O., day 10) was 472.1 ± 57.4 and the “percent increment of bleeding time” value ([7]; 45 mg/kg P.O., day 10) was 48%. The “Bleeding Time” value ([7]; 45 mg/kg P.O., day 10) was 467.8 ± 55.9, the “prolongation of the bleeding time” value ([7]; administered for 10 days) was 50% and the protein stabilizing activity [8] was “did not contain protein stabilizing activity”. For the same compound, the “% Inhibition of Malondialdehyde (MDA) Generation” value (from here on “% Inhibition of Malondialdehyde”) [9, 11] was 4.3 ± 2.1%, the “% Inhibition of Malondialdehyde” value [9, 12] was 91.9 ± 4.1% and the “% Inhibition of Malondialdehyde” value [9, 13] was 58.9 ± 7.0%. For the same compound, the “% Inhibition of Malondialdehyde” value [9, 14] was 2.3 ± 1.1%.

In the case of `CCCCC1C(=O)N(c2ccccc2)N(c2ccccc2)C1=O` [Phenylbutazone, reference compound], the “% Increment of Edema” value ([4]; 100 mg/kg P.O., 0.5 hr) is reported as 11.8 ± 6.26%, the “% Increment of Edema” value ([4]; 100 mg/kg P.O., 1.5 hr) is reported as 20.9 ± 6.88% and the “% Increment of Edema” value ([4]; 100 mg/kg P.O., 2.5 hr) is reported as 21.9 ± 9.22%. For the same compound, the “% Increment of Edema” value ([4]; 100 mg/kg P.O., 3.5 hr) was 36.2 ± 14.45%.

In the case of `CC(=O)Oc1ccccc1C(=O)O` [Aspirin, Acetylsalicylic acid, reference compound], the “gastric ulceration induced by aspirin” value [10] is given as “induces gastric ulceration”, the “pharmacological activities of aspirin” value [10] is given as “antipyretic, antianalgesic, antioxidant and antithromobotic activities” and the “number of rats that exhibited gastric ulcer” value ([3]; 200 mg/kg P.O.) is given as 5/5. For the same compound, the “Ulcer Index” value ([3]; 200 mg/kg P.O.) was 29.3 ± 6.15 mm, the gastric ulceration [3] was “caused ulceration” and the “Bleeding Time” value ([7]; 15 mg/kg P.O., day 2) was 353.5 ± 74.7. For the same compound, the “Bleeding Time” value ([7]; 15 mg/kg P.O., day 4) was 372.7 ± 50.1, the “Bleeding Time” value ([7]; 15 mg/kg P.O., day 6) was 516.6 ± 119.4 and the “Bleeding Time” value ([7]; 15 mg/kg P.O., day 8) was 493.6 ± 86.6. The “Bleeding Time” value ([7]; 15 mg/kg P.O., day 10) was 441.9 ± 46.2, the “% Inhibition of Malondialdehyde” value [9, 12] was 8.4 ± 4.2% and the “% Inhibition of Malondialdehyde” value [9, 13] was 0.8 ± 0.4%. The “% Inhibition of Malondialdehyde” value [9, 14] was 4.6 ± 2.3%.

In the case of `Cc1occc(=O)c1O` [Maltol, maltol], the “% Inhibition of Malondialdehyde” value [9, 11] is reported as 5.2 ± 2.6%, the “% Inhibition of Malondialdehyde” value [9, 12] is reported as 99.4 ± 0.3% and the “% Inhibition of Malondialdehyde” value [9, 13] is reported as 94.8 ± 2.6%. For the same compound, the “% Inhibition of Malondialdehyde” value [9, 14] was 13.4 ± 6.7%.

Source: patent publication US5349070A, “Salicylic acid-maltol conjugates” (priority 1993, dated 1994)
